# Test system: Ba/F3 ETV6-NTRK2-G639R cells
# Assay: Proliferation of Ba/F3 ETV6-NTRK2-G639R cells (CellTiter-Glo)
# Format: cell-based
# Conditions: Mus musculus, BaF3; Table 6; 72 hours
# Excerpt: Ba/F3 ETV6-NTRK2-G639R is a stable transgenic cell line constructed by KYinno Biotechnology Co., Ltd. on mouse primary B cell Ba/F3 wherein NTRK2 is highly expressed with a mutation of G at position 639 to R, and fused with ETV6 to form ETV6-NTRK2. • [Test method]: Promega's CellTiter-Glo® Luminescent Cell Viability Assay kit was used to evaluate the inhibitory activity of the compounds on the proliferation of Ba/F3 ETV6-NTRK2-G639R cells. • [Instrument]: Spectramax M3 multifunctional microplate reader from Molecular Devices. • [Test materials]: Ba/F3 ETV6-NTRK2-G639R cell line (constructed by KYinno Biotechnology Co., Ltd. (Beijing)), 96-well transparent flat-bottomed black-walled cell culture plate (Corning, catalog #3603), RPMI-1640 media (GE, cat #SH30027.01), fetal bovine serum FBS (Thermo Fisher, cat #10099-141), CellTiter-Glo® Luminescent Cell Viability Assay kit (Promega, cat #G7572), PBS (Solarbio, cat #P1020), DMSO (Sigma, cat #D2650). • [Experimental procedure]: When resuscitating Ba/F3 ETV6-NTRK2-G639R cells, the freezing tube was quickly shaken in a 37° C. water bath to melt within 1 minute. The thawed cell suspension was mixed uniformly with RPMI1640 medium containing 10% FBS, centrifuged at 1000 rpm for 5 minutes, and the supernatant discarded. 5 mL of complete medium (RPMI1640 medium with 10% FBS) was taken to resuspend the cell pellets, charged into a cell culture flask with a bottom area of 25 cm^2, and incubated in a cell incubator at 37° C., 95% humidity and 5% CO2. Cells were allowed to passage when the number of cells reached about 10^6 cells/mL. For cell passage, the old cell suspension was directly pipetted evenly, 1/5 of the cell suspension was kept, 4 mL of new complete medium was added, after pipetting evenly, the cell flask was placed in the cell incubator for further culturing. Cell plating was performed when the number of cells reached about 10^6 cells/mL again. For cell plating, 1/5 of the cell suspension was kept for further culturing as in the cell passage method, and the remaining 4/5 of the cell suspension was placed in a 15 mL centrifuge tube, detected for cell viability by Trypan blue exclusion method to ensure that cell viability was above 90%. A cell suspension with a density of 5.56×10^4 viable cells/mL was prepared with complete medium, and 90 μL of such cell suspension was added to a 96-well cell culture plate to obtain the cell density of 5000 viable cells/mL in the cell culture plate. A control group containing no cells, no compound and only complete medium (i.e. culture medium control) and a control group containing no compound but containing cells (i.e. cell control) were set. The cell plate was placed in a cell incubator overnight. The 10 mM compound stock solution in DMSO was first serially diluted with DMSO at a dilution factor of 3.16 times, to obtain 9 concentrations, and the 10th concentration was set as DMSO control without compound. Then, PBS was used to dilute the DMSO solutions of compounds of different concentrations, at a dilution factor of 100 times, so that the DMSO concentration in the compound solution of each concentration was 1%. Finally, 10 μL of each of the above solutions was added to the corresponding cell culture plate, so that the initial compound concentration was 10 μM, with the remaining concentrations being successively diluted at a dilution factor of 3.16 times, and the DMSO content in the cell culture plate was 0.1%. The cell plate was placed in a cell incubator and cultured for 72 hours. For endpoint detection, the CellTiter-Glo reagent was melted, and the cell plate was moved to room temperature to equilibrate for 30 minutes, added with 100 μL of CellTiter-Glo for each well, and shaken on an orbital shaker for 5 minutes to fully lyse the cells. The plate was kept at room temperature for 20 minutes to stabilize the luminescence signal, and the luminescence value of each well was scanned with a multi-functional microplate reader at full wavelength. • [Test samples] […]
row,Structure (SMILES),IC50
1,"Cn1ncc2cc(Oc3ccc(NC(=O)c4ccc(C(F)(F)F)n(-c5ccc(F)cc5)c4=O)cc3F)c(-c3cn[nH]c3)cc21 [Example 1, N-(3-fluoro-4-(1-methyl-6-(1H-pyrazol-4-yl)-1H-indazol-5-yloxy)phenyl)-1-(4-fluorophenyl)-6-trifluoromethyl-2-oxo-1,2-dihydmpyridine-3-carboxamide monomethanesulfonate]",3.12 µM
2,"Cn1ncc2cc(Oc3ccc(NC(=O)c4ccc(C5CC5)n(-c5ccc(F)cc5)c4=O)cc3F)c(-c3cn[nH]c3)cc21 [Example 2, N-(3-fluoro-4-(1-methyl-6-(1H-pyrazol-4-yl)-1H-indazol-5-yloxy)phenyl)-1-(4-fluorophenyl)-6-cyclopropyl-2-oxo-1,2-dihydmpyridine-3-carboxamide]",1.88 µM
3,"CCn1ncc2cc(Oc3ccc(NC(=O)c4ccc(C)n(-c5ccc(F)cc5)c4=O)cc3F)c(-c3cn[nH]c3)cc21 [Example 3, N-(3-fluoro-4-(1-ethyl-6-(1H-pyrazol-4-yl)-1H-indazol-5-yloxy)phenyl)-1-(4-fluorophenyl)-6-methyl-2-oxo-1,2-dihydmpyridine-3-carboxamide]",9.87 µM
4,"Cc1ccc(C(=O)Nc2ccc(Oc3cc4cnn(C(C)C)c4cc3-c3cn[nH]c3)c(F)c2)c(=O)n1-c1ccc(F)cc1 [Example 4, N-(3-fluoro-4-(1-isopropyl-6-(1H-pyrazol-4-yl)-1H-indazol-5-yloxy)phenyl)-1-(4-fluorophenyl)-6-methyl-2-oxo-1,2-dihydmpyridine-3-carboxamide]",> 10 µM
5,"CCc1ccc(C(=O)Nc2ccc(Oc3cc4cnn(C)c4cc3-c3cn[nH]c3)c(F)c2)c(=O)n1-c1ccc(F)cc1 [Example 5, N-(3-fluoro-4-(1-methyl-6-(1H-pyrazol-4-yl)-1H-indazol-5-yloxy)phenyl)-1-(4-fluorophenyl)-6-ethyl-2-oxo-1,2-dihydropyridine-3-carboxamide]",2.69 µM
6,"CC(C)c1ccc(C(=O)Nc2ccc(Oc3cc4cnn(C)c4cc3-c3cn[nH]c3)c(F)c2)c(=O)n1-c1ccc(F)cc1 [Example 6, N-(3-fluoro-4-(1-methyl-6-(1H-pyrazol-4-yl)-1H-indazol-5-yloxy)phenyl)-1-(4-fluorophenyl)-6-isopropyl-2-oxo-1,2-dihydropyridine-3-carboxamide]",2.79 µM
7,"O=C(Nc1cnn2ccc(N3CCC[C@@H]3c3cc(F)ccc3F)nc12)N1CC[C@H](O)C1 [LOXO-101, Larotrectinib, reference compound]",> 10 µM
8,"Cc1ccc(C(=O)Nc2ccc(Oc3cc4cnn(C)c4cc3-c3cn[nH]c3)c(F)c2)c(=O)n1-c1ccc(F)cc1 [Merestinib, reference compound]",3.04 µM
